{"source": "patent US20110003760A1", "about": "“ABNORMAL PROTEIN REMOVING METHOD” (priority 2005, published 2011)", "key": {"[1]": {"test_system": "carbonylated protein in three-dimensional human skin model TESTSKIN (LSE-high)", "assay": "Carbonylated protein in three-dimensional human skin model, Western blotting (DNPH)", "assay_type": "cell-based", "settings": "for Relative photographic density (carbonylated protein): untreated without UV = 100%", "procedure": "(§1) Three-dimensional human skin models are widely used in safety evaluation and effectiveness evaluation as a simulated model of human skin. In this test, TESTSKIN (LSE-high) (Toyobo Co., Ltd.) was used as a three-dimensional human skin model.\n(§2) A culture medium was added to the outer well of TESTSKIN (LSE-high) and cultured for 24 hours. UVA and UVB were irradiated at 10 J/cm^2 and 100 mJ/cm^2, respectively. UVB was irradiated for 2 minutes at a UV intensity of […] using FL20S-E-30/DMR (Clinical Supply Co., Ltd.) to achieve a total irradiation dose of 100 mJ/cm^2. UV intensity was measured using a UV MONITOR MS-211-I (Eiko Instruments Co., Ltd.).\nAs a control group, three-dimensional human skin models not irradiated with UVA or UVB were also prepared.\nThereafter, the culture solution was changed and each agent was added by 100 μl onto the tissues in the assay ring, after which the medium was cultured for 36 hours. Thereafter, the tissues were collected and a tissue extraction solution (50 mM Tris-HCl (pH 7.5), 0.5% (Octylphenoxy) polyethoxyethanol (Sigma-Aldrich Corp.)) was added, and then the mixture was homogenized using a Teflon (registered trademark) homogenizer. The homogenized mixture was centrifuged for 30 minutes at 10,000×G to remove tissue fragments, and then dialyzed overnight in distilled water at 4° C. Thereafter, the dialyzed mixture was freeze-dried to remove water. A tissue extraction solution was added to obtain a ×20 concentrate, and this concentrate was used as a three-dimensional skin model extract sample.\nIn this test, 2,4-dinitrophenyl hydrazine (DNPH), which specifically bonds with the carbonyl group in the protein produced by oxidation damage, was used to label carbonylated protein, and then detection was performed using an anti-DNPH antibody that specifically bonds with DNPH.\nThe specific method is explained below. DNPH protein was detected from the protein in the sample by means of Western blotting using a DNPH kit (Oxi Blot™ Protein Oxidation Detection Kit; Chemicon International Inc.). Detection was performed by exposing PVDF membranes to light using a […] (ECL PLUS; Amarsham PLC), and an automatic developer (FPM100; FUJIFILM Medical Co., Ltd.) was used to transfer images. A densitometer (Molecular Dynamics Inc.) was then used to analyze the images to quantify the photographic density. For your information, protein in the sample was reduced and measured as deemed appropriate. In this case, 2-mercaptoethanol was used as a reducing agent and the mixture was heated for 5 minutes at 100° C. to sever the disulfide bond.\nBased on the above results, it is clear that Bletilla striata extract and silybin suppress accumulation of carbonylated protein in a three-dimensional skin model in a manner dependent on the concentration. Accordingly, whether or not a combined use of Bletilla striata extract and silybin would synergistically suppress accumulation of carbonylated protein was evaluated. Also, whether or not a combined use of silybin and soybean saponin, a substance known to have an action to suppress accumulation of carbonylated protein, would synergistically suppress accumulation of carbonylated protein was evaluated. As a result, regardless of whether or not UV light was irradiated using silybin (3 μM) in combination with Bletilla striata extract (0.1%; final extract concentration of 0.001%), or using silybin (3 μM) in combination with soybean saponin (0.0005%), suppressed the accumulation of carbonylated protein synergistically compared to when a sample was treated with silybin (3 μM), Bletilla striata extract (0.1%; final extract concentration of 0.001%) or soybean saponin (0.0005%) alone, as far as accumulation of carbonylated protein in a three-dimensional skin model was concerned (FIG. 7 and Table 7; results of non-reduced protein)."}, "[2]": {"test_system": "carbonylated type I collagen in three-dimensional human skin model", "assay": "Carbonylated collagen in three-dimensional human skin model, type I collagen immunoprecipitation and Western blotting", "assay_type": "cell-based", "settings": "silybin 3 μM, Bletilla striata extract 0.1%, soybean saponin 0.0005%, alone or combined; for Relative photographic density (carbonylated collagen): Table 8, non-reduced protein, untreated without UV = 100%", "procedure": "as §1, §2\nThereafter, the culture solution was changed and each agent was added by 100 μl onto the tissues in the assay ring, after which the medium was cultured for 36 hours. […]\nUsing the protein derived from the three-dimensional human skin model extract treated with each agent, type I collagen was immunoprecipitated by means of a known method (Mizushima, et al., Jpn. J. Cancer Res. Vol. 93, pp. 652-659, 2002). […] The immunoprecipitate was washed three times using a STEN buffer solution, after which 50 μl of a SDS-PAGE sample buffer solution was added and the amount of carbonylated protein and amount of type I collagen were measured by means of Western blotting.\nFrom the results shown in FIG. 7 and Table 7, it is clear that using silybin in combination with Bletilla striata extract, or using silybin in combination with soybean saponin, synergistically suppresses carbonylated protein. Next, whether or not carbonylation of type I collagen would be suppressed by using silybin in combination with Bletilla striata extract, or using silybin in combination with soybean saponin, was evaluated to check the possibility of using such combinations to remove oxidized collagen that accumulates with age to cause lines, sagging, dull complexion and other signs of aging skin. […]"}}}
{"smiles": "COc1cc(C2Oc3cc([C@H]4Oc5cc(O)cc(O)c5C(=O)[C@@H]4O)ccc3OC2CO)ccc1O", "note": "(stereo partly shown) [Silybin, silybin]", "values": [{"measurement": "Relative photographic density (carbonylated protein)", "setting": "[1]; Table 7, non-reduced protein, head printed UV (−), silybin 3 μM, Bletilla striata extract 0.1%, soybean saponin 0.0005%, alone or combined", "result": 300, "unit": "%"}, {"measurement": "Relative photographic density (carbonylated protein)", "setting": "[1]; Table 7, non-reduced protein, first column UV (−), silybin 3 μM, Bletilla striata extract 0.1%, soybean saponin 0.0005%, alone or combined", "result": 60, "unit": "%"}, {"measurement": "amount of carbonylated protein compared to the sample not given any treatment under UV irradiation", "setting": "[1]; non-reduced protein, 3 μM", "result": 30, "unit": "%"}, {"measurement": "amount of carbonylated protein compared to the sample not given any treatment under UV irradiation", "setting": "[1]; non-reduced protein, 10 μM", "result": 9, "unit": "%"}, {"measurement": "amount of carbonylated protein compared to the sample not given any treatment under UV irradiation", "setting": "[1]; non-reduced protein, silybin 3 μM, Bletilla striata extract 0.1%, soybean saponin 0.0005%, alone or combined", "result": 60, "unit": "%"}, {"measurement": "Relative photographic density (carbonylated protein)", "setting": "[1]; non-reduced protein, treatment concentration 3 μM, UV (+)", "result": 95, "unit": "%"}, {"measurement": "Relative photographic density (carbonylated protein)", "setting": "[1]; non-reduced protein, treatment concentration 3 μM, UV (−)", "result": 55, "unit": "%"}, {"measurement": "Relative photographic density (carbonylated protein)", "setting": "[1]; non-reduced protein, treatment concentration 10 μM, UV (+)", "result": 30, "unit": "%"}, {"measurement": "Relative photographic density (carbonylated protein)", "setting": "[1]; non-reduced protein, treatment concentration 10 μM, UV (−)", "result": 8, "unit": "%"}, {"measurement": "amount of carbonylated protein compared to the sample not given any treatment under UV irradiation", "setting": "[1]; reduced protein, 3 μM", "result": 25, "unit": "%"}, {"measurement": "amount of carbonylated protein compared to the sample not given any treatment under UV irradiation", "setting": "[1]; reduced protein, 10 μM", "result": 10, "unit": "%"}, {"measurement": "Relative photographic density (carbonylated protein)", "setting": "[1]; reduced protein, treatment concentration 3 μM, UV (+)", "result": 85, "unit": "%"}, {"measurement": "Relative photographic density (carbonylated protein)", "setting": "[1]; reduced protein, treatment concentration 3 μM, UV (−)", "result": 50, "unit": "%"}, {"measurement": "Relative photographic density (carbonylated protein)", "setting": "[1]; reduced protein, treatment concentration 10 μM, UV (+)", "result": 35, "unit": "%"}, {"measurement": "Relative photographic density (carbonylated protein)", "setting": "[1]; reduced protein, treatment concentration 10 μM, UV (−)", "result": 5, "unit": "%"}, {"measurement": "Relative photographic density (carbonylated protein)", "setting": "[1]; reduced protein, treatment concentration 10 μM, UV (−), listed as silybin", "result": 10, "unit": "%"}, {"measurement": "Relative photographic density (carbonylated collagen)", "setting": "[2]; head printed UV (−)", "result": 430, "unit": "%"}, {"measurement": "Relative photographic density (carbonylated collagen)", "setting": "[2]; first column UV (−)", "result": 72, "unit": "%"}, {"measurement": "amount of carbonylated collagen compared to the sample not given any treatment under UV irradiation", "setting": "[2]; non-reduced protein, UV irradiation", "result": 72, "unit": "%"}]}
